Assay results: PubChem BioAssay (NCI)
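48-hour exposure; five concentrations; linearly interpolated endpoints. Here, GI50 denotes the concentration required for 50% inhibition of growth. The concentration for full growth arrest is given as TGI.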

How the values were obtained:
Test in all cases: DTP human tumour cell line panel, 48 h
ACHN renal = tested on: ACHN renal
DU-145 prostate = tested on: DU-145 prostate
HCT-15 colon = tested on: HCT-15 colon
MCF7 breast = tested on: MCF7 breast
MDA-MB-435 = tested on: MDA-MB-435
RXF 393 renal = tested on: RXF 393 renal
SF-295 CNS = tested on: SF-295 CNS
SF-539 CNS = tested on: SF-539 CNS
SK-MEL-2 melanoma = tested on: SK-MEL-2 melanoma
SNB-19 CNS = tested on: SNB-19 CNS

SMILES	GI50 (ACHN renal)	TGI (ACHN renal)	GI50 (DU-145 prostate)	TGI (DU-145 prostate)	GI50 (HCT-15 colon)	TGI (HCT-15 colon)	GI50 (MCF7 breast)	TGI (MCF7 breast)	GI50 (MDA-MB-435)	TGI (MDA-MB-435)	GI50 (RXF 393 renal)	TGI (RXF 393 renal)	GI50 (SF-295 CNS)	TGI (SF-295 CNS)	GI50 (SF-539 CNS)	TGI (SF-539 CNS)	GI50 (SK-MEL-2 melanoma)	TGI (SK-MEL-2 melanoma)	GI50 (SNB-19 CNS)	TGI (SNB-19 CNS)
COc1c(OC2OC(C)C(O)C(O)C2O)c(OC)c2oc(-c3ccc(O)cc3)cc(=O)c2c1O (stereo not drawn)	30.7 µM	> 100 µM	24.1 µM	52.8 µM	40.3 µM	> 100 µM	34.4 µM	> 100 µM	29.1 µM	78.5 µM	23.8 µM	66.5 µM	36.4 µM	> 100 µM	34.3 µM	90.5 µM	47.4 µM	> 100 µM	45.2 µM	> 100 µM
BrCc1ccc2ccc3ccc(CBr)nc3c2n1	–	5.58 µM	–	21.7 µM	–	4.18 µM	–	4.87 µM	–	16.6 µM	–	4.69 µM	–	28.6 µM	–	11 µM	–	15 µM	–	19.5 µM
NC(=S)c1cccc(C2Nc3ccccc3O2)c1 (stereo not drawn)	–	> 100 µM	–	> 100 µM	–	> 100 µM	–	> 100 µM	–	> 100 µM	–	> 100 µM	–	> 100 µM	–	> 100 µM	–	> 100 µM	–	> 100 µM
COc1cc(N)c(Cl)cc1C(=O)N[C@@H]1CCN(CCCOc2ccc(F)cc2)C[C@@H]1OC	> 100 µM	> 100 µM	> 100 µM	> 100 µM	23.6 µM	> 100 µM	57 µM	> 100 µM	> 100 µM	> 100 µM	> 100 µM	> 100 µM	50.3 µM	> 100 µM	66.2 µM	> 100 µM	> 100 µM	> 100 µM	> 100 µM	> 100 µM
COc1ccc(N=c2nc3sc4cc(Cl)ccc4n3c(N)c2C#N)cc1	8.66 µM	> 100 µM	35.8 µM	> 100 µM	5.59 µM	> 31.1 µM	1.92 µM	21.5 µM	3.98 µM	> 100 µM	5.27 µM	> 100 µM	2.51 µM	23.1 µM	9.71 µM	> 100 µM	2.8 µM	34.7 µM	20.7 µM	> 100 µM
Cn1cc(-c2csc(-c3ccc(Cl)cc3)n2)c2cccnc21	14.1 µM	29.2 µM	15.3 µM	28.9 µM	12.2 µM	29.3 µM	11.9 µM	29.8 µM	12.8 µM	33.6 µM	13.9 µM	39.8 µM	15.5 µM	34.4 µM	14.8 µM	29.5 µM	17.4 µM	42.5 µM	13.8 µM	30.2 µM
O=C(O)C(Cc1ccccc1)N1C(=O)/C(=C/C(Cl)=C/c2ccc([N+](=O)[O-])cc2)SC1=S (stereo not drawn)	1.8 µM	3.3 µM	2.06 µM	4.56 µM	1.92 µM	4.58 µM	2.38 µM	10.7 µM	2.27 µM	6 µM	1.54 µM	3.02 µM	2.59 µM	7.85 µM	–	–	1.87 µM	4.5 µM	–	–
COc1cc(C=NCC(=O)CSC(c2ccccc2)c2ccccc2)ccc1O	12.5 µM	31.8 µM	12.2 µM	37.8 µM	13.8 µM	30.8 µM	21.2 µM	> 100 µM	14.3 µM	35.7 µM	13.4 µM	26.8 µM	14.6 µM	46.9 µM	14.8 µM	29.1 µM	14.9 µM	28.7 µM	14.5 µM	28.7 µM
C=C(CN1CCN(c2ccccn2)CC1)c1ccc(C(=O)Nc2ccccc2N)cc1	1.5 µM	> 50 µM	2.52 µM	18.5 µM	1.91 µM	> 50 µM	3.15 µM	> 50 µM	0.522 µM	1.4 µM	1.55 µM	13 µM	1.39 µM	6.52 µM	1.5 µM	8.87 µM	1.87 µM	> 50 µM	4.87 µM	29.7 µM
CC(=O)/C(=N\N=C(N)N)c1ccccc1	–	> 100 µM	–	> 100 µM	–	> 100 µM	–	> 100 µM	–	> 100 µM	–	> 100 µM	–	> 100 µM	–	> 100 µM	–	> 100 µM	–	> 100 µM
COC(=O)c1c(C(=O)O)c(-c2ccccc2)c(-c2ccccc2)c(-c2ccccc2)c1-c1ccccc1	> 100 µM	> 100 µM	> 100 µM	> 100 µM	> 100 µM	> 100 µM	> 100 µM	> 100 µM	> 100 µM	> 100 µM	> 100 µM	> 100 µM	> 100 µM	> 100 µM	> 100 µM	> 100 µM	> 100 µM	> 100 µM	23.1 µM	> 100 µM
CCOC(=O)c1sc(NC(=O)COc2ccc(/C=C3\CCc4cc(OC)ccc4C3=O)cc2)nc1C	13.8 µM	32.5 µM	12.8 µM	26.4 µM	7.96 µM	21.1 µM	9.43 µM	23 µM	4.05 µM	18.3 µM	12 µM	29.3 µM	11.1 µM	23.9 µM	11.7 µM	23.9 µM	5.61 µM	21.6 µM	12.2 µM	25.1 µM
COC(=O)N[C@@H](C)CNc1nccc(-c2cn(C(C)C)nc2-c2cc(Cl)cc(NS(C)(=O)=O)c2F)n1	1.03 µM	> 100 µM	> 93 µM	> 100 µM	7.46 µM	> 100 µM	98.5 µM	> 100 µM	< 0.01 µM	> 100 µM	0.623 µM	23.3 µM	55.7 µM	> 100 µM	62.6 µM	> 100 µM	–	–	> 100 µM	> 100 µM
OC(Cc1cccc2ccccc12)CN1CCC(c2ccccc2)CC1 (stereo not drawn)	–	31.7 µM	–	31.9 µM	–	30.4 µM	–	32.7 µM	–	28.3 µM	–	23 µM	–	27.9 µM	–	31.1 µM	–	–	–	26.3 µM
